Test results published in patent US9856259B2, “Heterocyclic compounds and uses thereof” (Plexxikon Inc., priority 2014, dated 2018).

How the values were obtained:
[1] = system: cancer cell lines / MV-4-11 Myc reporter cell line; assay: Bromodomain cell assays of Example 8 (at least one of them); assay type: cell-based; conditions: Homo sapiens, MV4-11; at least one of the bromodomain cell assays described in Example 8
Method: (§1) In this study, we test compounds in different cancer cell lines. MV-4-11 and MOLM-13 are AML cell lines harboring a MLL-AF4 and MLL-AF9 translocation, respectively. MM.1S is a multiple myeloma cell line. SK—N-AS, IMR-32 and SK-N-BE(2) are neuroblastoma cell lines. IMR-32 and SK-N-BE(2) cell lines harbor MYCN amplifications.
(§2) MV-4-11, MM.1S, IMR-32, SK-N-AS and SK-N-BE(2) were obtained from ATCC (IL, USA) and MOLM-13 were purchased from DSMZ (Braunschweig, German). Cells are cultured as recommended by their sources. For growth inhibition studies 3000 cells are seeded in wells of a 96-well plate in 75 μL of culture media. After several hours, growth media containing compounds of formula (I) are added to the wells. Compound at a maximal concentration of 5 mM was serially diluted 1:3 for a total of 8 point titration with DMSO as a control. A 1 μL aliquot of each dilution point is added to 249 μL growth media and 75 μL is added to each well containing cells, providing 10 μM compound at the maximum concentration point. The final concentration of DMSO in all wells is 0.2%. Cells are incubated for 72 hours, and 25 μL of CellTiter Glo Reagent (Promega Ga., USA) is added to each well. Plates are shaken for approximately 10 minutes and chemiluminescent signal is read on Tecan microplate reader. The measured luminescence correlates directly with cell number.
(§3) All data is normalized to the mean of eight DMSO high control wells on each plate. A four parameter curve fit of the following formula was then applied: Y=a+(b−a)/(1+(x/c)^d) Where ‘a’ is the minimum, ‘b’ is the maximum, ‘c’ is the pIC50 and ‘d’ is the Hill slope. […] Myc Reporter Assay
In MV-4-11 cells, BRD2, BRD3 and BRD4 bind to the promoter region of MYC and regulate its transcription (Dawson M A et al. 2011). The literature bromodomain inhibitor iBET 151 could disrupt BRD4 recruitment to the MYC promoter and subsequently downregulate c-myc transcription (Dawson M A et al. 2011). Myc protein is a transcription factor that heterodimerizes with an obligatory partner Max and regulates the transcription of genes important for cell proliferation, differentiation, and apoptosis. This Myc reporter assay is used to monitor the inhibitory effect of compound of formula (I) on Myc dependent gene expression. Effective compounds could have potential therapeutic effects in Myc-driven tumors.
The MV-4-11 Myc reporter cell line is established by infecting MV-4-11 with VSV-g pseudotyped lentivirus expressing the firefly luciferase gene under the control of a minimal (m) CMV promoter and tandem repeats of the E-box transcriptional response element (TRE) (Qiagen IL, USA) and selecting cells in 2.5 μg/ml Puromycin.
The MV-4-11 Myc reporter cell line is maintained in Iscove's Modified Dulbecco's Medium containing 10% FBS, 1% PenStep and 2.5 μg/ml Puromycin. Cells are incubated at 37° C. in a humidified atmosphere with 5% CO2. 25,000 cells are seeded in 96-well plate in 50 μL of culture media. After several hours, growth media containing 2× compounds are added to the wells. Compound at a maximal concentration of 5 mM is serially diluted 1:3 for a total of 8 point titration. A 1 μl aliquot of each dilution point is added to 249 μl growth media and 50 μl is added to each well containing cells, providing 10 μM compound at the maximum concentration point. DMSO treated cells serve as a high control and 10 μM JQ1 treated cells serve as a low control. Cells are incubated for a further 24 hours and 25 μL of CellTiter-Fluo Reagent (Promega Ga., USA) is added to each well. Plates are shaken for approximately 2 minutes and incubated at 37° C. for 0.5 hour. Fluorescence signal is read in a Tecan Plate reader (λex=400 nm, λcm=505 nm). 25 μL of One-Glo Reagent (Promega Ga., USA) is then added to the plates. Chemiluminescent signal is read on Tecan plate reader. Values from the wells with no cells are subtracted from all samples for background correction. […]

MV-4-11 = assay: Oncology cell growth assay, MV-4-11 3 d growth; assay type: cell-based; conditions: Homo sapiens, MV4-11; MV-4-11 cells, 72 hours, CellTiter Glo; read-out: Cell activity (IC50 μM) MV-4-11 3 d-Growtb
Method: as §1, §2, §3

BRD4-BD12 = molecular target: T1, BRD4-BD12 (Homo sapiens, UniProt O60885); assay: Alphascreen binding assay, BRD4(1 2) H4; conditions: BRD4 dual bromodomains with acetylated Histone 4 peptide, read-out: Biochemical activity (IC50 μM) BRD4(1 2) H4
T1 construct: dual bromodomains (BRD4-BD12 (1-477), BRD4-BD12 (1-472)); six-His tag (N); made in house; host or cells: E. coli BL21-CodonPlus (DE3)
Method: Binding of compounds of formula (I) with bromodomain 2, 3 4 was assessed using Alphascreen binding assay. The inhibition of the interaction between bromodomain and its acetylated target protein (Filippakopoulos P et al. 2012) was measured quantitatively using recombinant BRD proteins, an acetylated Histone 4 peptide and AlphaScreen™ technology. In absence of inhibition the BRD protein bound to AlphaScreen™ nickel chelate acceptor beads can interact with the acetylated Histone 4 peptide which is immobilized by the AlphaScreen™ Streptavidin coated beads. This interaction brings donor and acceptor beads in proximity. The close proximity allows the singlet oxygen produced by laser excitation of the donor beads to reach the acceptor beads and generate a luminescence signal. BRD inhibitors result in a decrease in the proximity signal through an inhibition of the BRD acetylated peptide interaction.
Recombinant human bromodomains containing the N-terminal bromodomain (BRD2-BD1 (71-194), BRD3-BD1 (24-144) and BRD4-BD1 (44-164)) or dual bromodomains (BRD4-BD12 (1-477), BRD4-BD12 (1-472)) were prepared and purified as described in protein expression and purification session. The peptide is human Histone H41-21K5AcK8AcK12AcK16Ac-Biotin (Anaspec Calif., USA).
Protocol for BRD2, BRD3 and BRD4 assay: All components are prepared in buffer composed of 50 mM HEPES pH 7.5, 100 mM NaCl, 0.01% BSA, 0.01% Triton X-100, 2 mM DTT. 7 μL of Bromodomain protein and 7 μL of peptide are added to wells containing 1 μL of various concentrations of test compounds of formula (I) or DMSO vehicle in an Alphaplate (PerkinElmer Ga., USA) and incubated for 1 hour at room temperature. 4 μL donor and acceptor bead mixture is then added with final concentrations of 7.5 μg/ml. 30 minutes after bead addition, Alpha signal is read on the Envision spectrometer (λEx 680 nm, λEm 520-620 nm). Final concentrations of bromodomain proteins and peptide are as shown below.
All data was normalized to the mean of 16 high and 16 low control wells on each plate. A four parameter curve fit of the following formula was then applied: Y=a+(b−a)/(1+(x/c)^d) Where ‘a’ is the minimum, ‘b’ is the maximum, ‘c’ is the pIC50 and ‘d’ is the Hill slope. Protein Expression and Purification
Recombinant human bromodomains containing the N-terminal bromodomain (BRD2-BD1 (71-194), BRD3-BD1 (24-144) and BRD4-BD1 (44-164)) or dual bromodomains (BRD4-BD12 (1-477), BRD4-BD12 (1-472)) were expressed in E. coli cells (in a modified pET vector) with an N-terminal six-His tag and purified using a combination of both IMAC (Ni-affinity) and size exclusion chromatography steps.
Recombinant BRD proteins were expressed using the E. coli strain BL21-CodonPlus (DE3) (Agilent Technologies CA, USA). Cells were grown in Terrific Broth (TB) media to an OD600 of 1.2 at 37° C. at which temperature was reduced to 25° C., protein was induced with 1.0 mM IPTG for 12-18 hours and harvested by centrifugation at 8000×g for 20 minutes. Cells were re-suspended in 0.1M KPO4 pH 8.0, 250 mM NaCl, 10% Glycerol, 0.75% NP-40, 25 mM Imidazole, 5 mM BME with 0.2 mg/ml Lysosyme, 2.0 mM PMSF, 25 μg/ml DNAse I, incubated on ice for 30 minutes and lyzed with a cell disruptor (MicroFluidics MA, USA). The lysate was clarified by centrifugation at 20,000×g for 2 hours. The protein was captured with Ni-NTA resin (Life Technologies, USA). Contaminating proteins were washed off with 25 mM Tris-HCl pH 8.3, 250 mM NaCl, 12% Glycerol and 50 mM Imidazole. Following 3× wash steps, protein was eluted step wise using a 50 mM HEPES pH 7.5, 500 mM NaCl and 400 mM Imidazole. The protein was further purified using Gel Filtration column 26/600 Superdex 200 (GE Biosciences N.J., USA) in 50 mM HEPES pH 7.5, 250 mM NaCl. The protein was aliquoted and flash-frozen in liquid Nitrogen.

SMILES: Cc1noc(C)c1-c1cnc2c(-c3cnn(C)c3)nn(CC3CC(F)(F)C3)c2c1 [Compound P-2086, 4-[1-[(3,3-difluorocyclobutyl)methyl]-3-(1-methylpyrazol-4-yl)pyrazolo[4,3-b]pyridin-6-yl]-3,5-dimethyl-isoxazole]
- IC50 [1]: < 10 µM
- IC50 (MV-4-11): ≤ 1 µM
- IC50 (BRD4-BD12): ≤ 1 µM

SMILES: Cc1noc(C)c1-c1cnc2c(-c3ccc(C#N)nc3)cn([C@@H](C)c3ccccn3)c2n1 [Compound P-2055, 5-[3-(3,5-dimethylisoxazol-4-yl)-5-[(1S)-1-(2-pyridyl)ethyl]pyrrolo[2,3-b]pyrazin-7-yl]pyridine-2-carbonitrile]
- IC50 [1]: < 10 µM
- IC50 (MV-4-11): ≤ 1 µM
- IC50 (BRD4-BD12): ≤ 1 µM

SMILES: Cc1noc(C)c1-c1cnc2c(-c3cnn(C(F)F)c3)nn(CC3CCC(F)(F)CC3)c2c1 [Compound P-2082, 4-[1-[(4,4-difluorocyclohexyl)methyl]-3-[1-(difluoromethyl)pyrazol-4-yl]pyrazolo[4,3-b]pyridin-6-yl]-3,5-dimethyl-isoxazole]
- IC50 [1]: < 10 µM
- IC50 (MV-4-11): ≤ 1 µM
- IC50 (BRD4-BD12): ≤ 1 µM

SMILES: COC(=O)c1ccc(-c2cn([C@@H](C)c3ccccn3)c3nc(-c4c(C)noc4C)cnc23)cc1 [Compound P-2049, methyl 4-[3-(3,5-dimethylisoxazol-4-yl)-5-[(1S)-1-(2-pyridyl)ethyl]pyrrolo[2,3-b]pyrazin-7-yl]benzoate]
- IC50 [1]: < 10 µM
- IC50 (MV-4-11): ≤ 1 µM
- IC50 (BRD4-BD12): ≤ 1 µM

SMILES: Cc1noc(C)c1-c1ccc2c(-c3ccc(CC(=O)O)cc3)nn([C@@H](C)c3ccccn3)c2c1 [Compound P-2014, 2-[4-[6-(3,5-dimethylisoxazol-4-yl)-1-[(1S)-1-(2-pyridyl)ethyl]indazol-3-yl]phenyl]acetic acid]
- IC50 [1]: < 10 µM
- IC50 (MV-4-11): ≤ 1 µM
- IC50 (BRD4-BD12): ≤ 1 µM

SMILES: Cc1noc(C)c1-c1ccc2c(-c3cnn(C)c3)nn(C(c3ccccc3)c3ccccn3)c2c1 (stereo not drawn) [Compound P-2004, 3,5-dimethyl-4-[3-(1-methylpyrazol-4-yl)-1-[phenyl(2-pyridyl)methyl]indazol-6-yl]isoxazole]
- IC50 [1]: < 10 µM
- IC50 (MV-4-11): ≤ 1 µM
- IC50 (BRD4-BD12): ≤ 1 µM

SMILES: Cc1noc(C)c1-c1ccc2c(-c3ccc(C(=O)O)cc3)nn([C@@H](C)c3ccccn3)c2c1 [Compound P-2013, 4-[6-(3,5-dimethylisoxazol-4-yl)-1-[(1S)-1-(2-pyridyl)ethyl]indazol-3-yl]benzoic acid]
- IC50 [1]: < 10 µM
- IC50 (MV-4-11): ≤ 1 µM
- IC50 (BRD4-BD12): ≤ 1 µM

SMILES: Cc1noc(C)c1-c1ccc2c(-c3cnn(CC(F)(F)F)c3)nn(CC3CCC(F)(F)CC3)c2c1 [Compound P-2002, 4-[1-[(4,4-difluorocyclohexyl)methyl]-3-[1-(2,2,2-trifluoroethyl)pyrazol-4-yl]indazol-6-yl]-3,5-dimethyl-isoxazole]
- IC50 [1]: < 10 µM
- IC50 (MV-4-11): ≤ 1 µM
- IC50 (BRD4-BD12): ≤ 1 µM

SMILES: COC(=O)Cc1ccc(-c2nn(C(c3ccccc3)c3ccccn3)c3cc(-c4c(C)noc4C)ccc23)cc1 (stereo not drawn) [Compound P-2008, methyl 2-[4-[6-(3,5-dimethylisoxazol-4-yl)-1-[phenyl(2-pyridyl)methyl]indazol-3-yl]phenyl]acetate]
- IC50 [1]: < 10 µM
- IC50 (MV-4-11): ≤ 1 µM
- IC50 (BRD4-BD12): ≤ 1 µM

SMILES: [2H]C([2H])(C1CCC(F)(F)CC1)n1ccc2ncc(-c3c(C)noc3C)nc21 [Compound P-2038, 4-[5-[dideuterio-(4,4-difluorocyclohexyl)methyl]pyrrolo[2,3-b]pyrazin-3-yl]-3,5-dimethyl-isoxazole]
- IC50 [1]: < 10 µM
- IC50 (MV-4-11): 1 to 10 µM
- IC50 (BRD4-BD12): ≤ 1 µM

SMILES: Cc1noc(C)c1-c1ccc2c(-c3ccc(CC(=O)O)cc3)nn(C(c3ccccc3)c3ccccn3)c2c1 (stereo not drawn) [Compound P-2009, 2-[4-[6-(3,5-dimethylisoxazol-4-yl)-1-[phenyl(2-pyridyl)methyl]indazol-3-yl]phenyl]acetic acid]
- IC50 [1]: < 10 µM
- IC50 (MV-4-11): ≤ 1 µM
- IC50 (BRD4-BD12): ≤ 1 µM

SMILES: Cc1noc(C)c1-c1ccc2c(-c3cnn(CC(F)(F)F)c3)nn(C(c3ccccc3)c3ccccn3)c2c1 (stereo not drawn) [Compound P-2005, 3,5-dimethyl-4-[1-[phenyl(2-pyridyl)methyl]-3-[1-(2,2,2-trifluoroethyl)pyrazol-4-yl]indazol-6-yl]isoxazole]
- IC50 [1]: < 10 µM
- IC50 (MV-4-11): ≤ 1 µM
- IC50 (BRD4-BD12): ≤ 1 µM
